In patent US20250115669A1, “FGFR1/KLB Targeting Agonistic Antigen-Binding Proteins and Conjugates Thereof with GLP-1R Agonistic Peptides” (SANOFI, priority 2020, published 2025):

Experiment: SAR16 (16H7) standalone and in combination with dulaglutide in DIO NASH cynomolgus monkeys
Type: in vivo, Cynomolgus monkey (Macaca fascicularis)
Description: Both were tested as single administration and in combination of both in the most relevant animal model that reflects the intended human population. Thus, the pharmacokinetic and pharmacodynamics of varying doses of the compounds were explored in the high-fat diet-induced obese and insulin resistance cynomolgus monkey model with diagnosed non-alcoholic steatohepatitis (NASH), mimicking the adult human NASH insulin resistance phenotype.
Cynomolgus monkey (Macaca fascicularis) was selected as the test species of choice for more meaningful results that were translatable to humans. More than 50 male monkeys were trained to identify 40 HFD induced obese NASH monkeys for the study.
There was a run-in period during which monkeys were injected subcutaneously with vehicle every third day. Food intake (calculated as TEI) and water intake were measured daily along with twice-weekly body weight evaluation and baseline value determination for metabolic biomarkers, safety biomarkers, IV glucose tolerance test (IVGTT), liver biopsy for gene expression analysis, and profile for glucose, insulin, and plasma lipids.
For the dosing period 40 trained monkeys (n=10 per group) were selected and stratified for body weight, fasting plasma glucose (FPG), and fasting plasma insulin (FPI) and insulin response from baseline during the IVGTT. All treatments were administered subcutaneously for […]. The dosing period was designed as a four-arm, dose-ramping study, and monkeys were treated with either vehicle, SAR10, SAR16, or a combination of both SAR10 and SAR16.
(§1) The SAR10-treated monkeys were dosed every 3rd day at 60 μg/kg initiated by dose ramping (3 dose steps, week 1: 20 μg/kg, week 2: 40 μg/kg, week 3 to runout: 60 μg/kg). The SAR16-treated monkeys were dosed at 1 mg/kg on day +1, 3 mg/kg on day +16, and then repeat maintenance dose of 3 mg/kg on day +46. The Combo-treated monkey were dosed with both SAR10 and SAR16 as the same pattern of the SAR10 and SAR16 treated monkeys.
Other parameters were also measured during the study, including food intake, body fat, plasma ketone bodies, as well as blood glucose control (glucose profile, fed, fasting plasma glucose and during ivGTT). One group received the vehicle. The compounds were administered subcutaneously (SC) (12 weeks “evaluation phase” plus run-out) to obese and NASH male cynomolgus macaques (Macaca fascicularis).
as §1, with “at” for “as”

[1] = compared to the vehicle treated group
[2] = day +76 compared to baseline (day −27)

With “16H7: anti FGFR1c/KLB monoclonal antibody of WO 2011/071783, IgG2 backbone; HC SEQ ID NO: 1, LC SEQ ID NO: 2 [Ab 16H7]” the “body weight (in words)” value (DIO NASH cynomolgus monkeys) was “Significant reductions in body weight”, the food intake (DIO NASH cynomolgus monkeys) was “Reduction of food intake” and the “fasting glucose and fed glucose levels (12:30 and 18:30)” value [1] was “No significant change”. For the same substance, the “ivGTT glucose AUC” value [1] was “significantly decreased”, the “blood glucose levels, plasma profile” value [2] was “appreciable decreases” and the “insulin, plasma profile” value [2] was “decreased”. The “HDL levels, plasma profile” value (day +76 versus day −27) was “slightly increased”, the “T-ketones levels, plasma profile” value (day +76 versus day −27) was “increased T-ketones levels” and the “TC and LDL levels, plasma profile” value (day +76 versus day −27) was “quite stable”. The “TG values, plasma profile” value (day +76 versus day −27) was “lower TG values”, the “liver fat fraction change (MRI)” value (measured on days +81/+82/+83/+84, DIO NASH cynomolgus monkeys) was −30.0% and the NASH steatosis score (more monkeys improved compared to vehicle treated group) was “improved steatosis score”.
